Assay results published in patent US20250032514A1, “COMPOSITIONS AND METHODS FOR THE TREATMENT OF VARIOUS DISEASES” (Amylyx Pharmaceuticals, Inc., priority 2023, published 2025).
Read-outs that look alike come from different tables or passages of the source.

Tests used:
[1] = Study A35-002: single-dose PK of AMX0035, fasted vs high-fat meal, two-period cross-over; assay type: in vivo, human; settings: for half-life: both sexes, human, plasma
Protocol: The pharmacokinetics (PK) of PB and TURSO after a single dose administration of AMX0035 were determined in adult (40 to 55 years of age) male and female normal healthy participants. Fourteen participants received a single dose of AMX0035 on two occasions (with a washout between periods of no less than 4 days), after fasting or after a high-fat standardized meal in a balanced, two-period, cross-over design (Study A35-002).
Clearance is rapid, and the terminal half-life (t1/2) is less than 1 hour. […] The primary metabolite of PB is phenylacetate (PAA), which occurs endogenously as a phenylalanine metabolite. […] Many participants had two or three peaks of absorption, which is consistent with bile acid storage and release upon a meal/snack. […] The primary metabolites of TURSO include ursodeoxycholic acid (UDCA) and glycoursodeoxycholic acid (GUDCA). All three are naturally occurring hydrophilic bile acids and subject to extensive enterohepatic recirculation.

[2] = test system: G93A SOD1 mouse model of ALS; settings: cited from earlier work
[3] = in vivo; cited from earlier work
[4] = single oral dose of AMX0035, healthy adults

Row | SMILES | half-life ([1]; oral, under both the fed and fasted condition, read-out: terminal half-life (converted)) [h] | half-life ([1]; single oral dose of AMX0035, healthy adults, read-out: terminal half-life (t1/2)) [h] | absorption in the presence of a high-fat meal ([1]; high-fat meal vs fasted) | overall exposure in the presence of a high-fat meal ([1]; high-fat meal vs fasted) | absorption of PB [1, 4] | clearance [1, 4] | survival in in vivo models [2] | half-life ([1]; oral, fasting, read-out: terminal t1/2 (average) (converted)) [h] | terminal t1/2 (average) ([1]; fed) [h] | absorption of TURSO ([1]; given with or without food) | Cmax in the presence of a high-fat meal ([1]; high-fat meal vs fasted) | increase in exposure as AUC0-last in the presence of a high-fat meal ([1]; high-fat meal vs fasted) | most common adverse reactions reported (≥1%) [3]
1 | O=C(O)CCCc1ccccc1 [PB, sodium phenylbutyrate] | ~0.5 | < 1 | significantly slower | lower | rapidly absorbed | rapid | increase survival |  |  |  |  |  | 
2 | C[C@H](CCC(=O)NCCS(=O)(=O)O)[C@H]1CC[C@H]2[C@@H]3[C@@H](O)C[C@@H]4C[C@H](O)CC[C@]4(C)[C@H]3CC[C@]12C [TURSO, taurursodiol] |  |  |  |  |  |  |  | 4.8 | 3.6 | slowly absorbed | similar | less than 1 fold | abdominal discomfort, abdominal pain, diarrhea, nausea, pruritus, and rash
